The results in this text go back to patent publication US20260191968A1, “PROTAC DEGRADERS OF MLLT1 AND/OR MLLT3” (DARK BLUE THERAPEUTICS LTD, priority 2024, published 2026).

One assay relates to human AML. Put plainly: in vivo mouse model of human AML (tumour growth). To be noted: oral administration, procedure of Example 236, FIG. 1.
A further assay has as its target T1, MLLT3 (Mus musculus, UniProt A2AM29).
T1 construct: host or cells: NIH/3T3
T1 sequence (A2AM29 1-569): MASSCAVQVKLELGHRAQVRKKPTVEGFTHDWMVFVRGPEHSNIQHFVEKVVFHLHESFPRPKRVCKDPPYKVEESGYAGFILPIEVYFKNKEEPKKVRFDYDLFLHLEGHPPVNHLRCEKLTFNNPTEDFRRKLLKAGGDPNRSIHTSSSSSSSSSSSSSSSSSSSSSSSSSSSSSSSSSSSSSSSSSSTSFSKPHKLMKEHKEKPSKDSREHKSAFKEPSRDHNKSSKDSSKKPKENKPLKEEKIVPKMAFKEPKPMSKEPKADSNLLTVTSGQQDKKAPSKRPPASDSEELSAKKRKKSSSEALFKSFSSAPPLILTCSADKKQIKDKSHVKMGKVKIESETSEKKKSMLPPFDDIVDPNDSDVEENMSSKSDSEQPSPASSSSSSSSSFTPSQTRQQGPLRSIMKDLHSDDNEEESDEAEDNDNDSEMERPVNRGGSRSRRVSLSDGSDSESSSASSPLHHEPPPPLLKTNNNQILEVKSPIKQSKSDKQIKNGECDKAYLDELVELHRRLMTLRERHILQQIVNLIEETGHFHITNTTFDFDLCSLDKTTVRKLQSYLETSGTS
The assay is described as follows: MLLT3 degradation assay in NIH/3T3 cells (JESS), dose response, 5 h. In kind it is cell-based. On the procedure:
MLLT3 degradation efficacy of compounds was tested in an automated chemiluminescent detection system (JESS, Cat #004-650). NIH/3T3 (#CRL-1658, ATCC) were seeded at a density of 0.5 million cells/well in a cell culture treated 6-well cell culture plate in 2 mL of complete medium (DMEM+10% FBS+IX Penicillin-Streptomycin) and incubated at 37° C., 5% CO2. The next day, 10 mM DMSO stocks were prepared, and cells were treated with eight concentrations of test compounds, starting from 100 nM, 5-fold dilution, at a final DMSO concentration of 0.1% and incubated for 5 h at 37° C., 5% CO2. Post incubation, cells were washed with HBSS and lysed in 70 μL of RIPA buffer supplemented with Protease inhibitors (sc-24948; Santa Cruz). Later, protein estimation was done using BCA protein assay kit (23228; Pierce). 4 μg protein lysate (4 μL of 1 μg/μL lysate) was loaded into each well of the JESS cartridge (SM-W004; Bio-techne) and the JESS run was performed using 1:200 dilution of anti-mouse MLLT3 antibody (#47577; CST) and 1:800 dilution of anti-human GAPDH antibody (2118; Cell signaling technology) with anti-rabbit secondary detection module (DM-001; Bio-Techne). Post run, data was analysed using “Compass for SW” software for chemiluminescent detection. Peak fit was done using “dropped lines” method. […]

Another assay has as its target T2, MLLT1 (Mus musculus, UniProt F6UGX7).
T2 construct: host or cells: NIH/3T3
T2 sequence (F6UGX7 1-547): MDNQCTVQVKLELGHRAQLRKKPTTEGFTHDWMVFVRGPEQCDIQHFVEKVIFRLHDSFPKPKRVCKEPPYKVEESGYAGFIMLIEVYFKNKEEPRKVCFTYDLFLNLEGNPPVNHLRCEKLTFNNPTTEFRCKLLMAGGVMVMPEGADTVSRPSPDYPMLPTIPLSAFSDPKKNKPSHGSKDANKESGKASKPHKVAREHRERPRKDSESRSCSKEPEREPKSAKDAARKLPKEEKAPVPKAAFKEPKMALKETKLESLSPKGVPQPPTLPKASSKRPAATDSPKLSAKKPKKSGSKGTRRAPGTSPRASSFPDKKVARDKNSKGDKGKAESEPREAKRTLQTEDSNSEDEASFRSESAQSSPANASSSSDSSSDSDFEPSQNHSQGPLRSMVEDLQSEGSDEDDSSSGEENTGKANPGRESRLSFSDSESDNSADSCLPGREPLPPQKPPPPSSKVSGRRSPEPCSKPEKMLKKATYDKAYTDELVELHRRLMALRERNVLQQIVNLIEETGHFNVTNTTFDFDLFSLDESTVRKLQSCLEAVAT
The assay is described as follows: MLLT1 degradation assay in NIH/3T3 cells (JESS), dose response, 5 h. Format: cell-based. On the procedure:
MLLT1 degradation efficacy of compounds was tested in an automated chemiluminescent detection system (JESS, Cat #004-650). NIH/3T3 (#CRL-1658, ATCC) were seeded at a density of 0.5 million cells/well in a cell culture treated 6-well cell culture plate in 2 mL of complete medium (DMEM+10% FBS+1X Penicillin-Streptomycin) and incubated at 37° C., 5% CO2. The next day, 10 mM DMSO stocks were prepared, and cells were treated with eight concentrations of test compound, starting from 100 nM, 5-fold dilution, at a final DMSO concentration of 0.1% and incubated for 5 h at 37° C., 5% CO2. Post incubation, cells were washed with HBSS and lysed in 70 μL of RIPA buffer supplemented with Protease inhibitors (sc-24948; Santa Cruz). Protein estimation was done using BCA protein assay kit (23228; Pierce). […] Post run, data was analysed using “Compass for SW” software for chemiluminescent detection. […]
MLLT3 degradation efficacy of compounds was tested in an automated chemiluminescent detection system (JESS, Cat #004-650). […] Post run, data was analysed using “Compass for SW” software for chemiluminescent detection. […]

On to `CN1CCC[C@@H]1c1cc2cnc(NC(=O)c3ccc(CCCC#Cc4cccc5c4CN(C4CCC(=O)NC4=O)C5=O)cc3)cc2[nH]1` (stereo partly drawn) [Example 55, 4-(5-(2-(2,6-dioxopiperidin-3-yl)-1-oxoisoindolin-4-yl)pent-4-yn-1-yl)-N-(2-((R)-1-methylpyrrolidin-2-yl)-1H-pyrrolo[3,2-c]pyridin-6-yl)benzamide], for which the tumour growth result in the assay on human AML was “reduction in tumour growth”. Moreover, the half-maximal degradation concentration (DC50) (commonly the concentration at which degradation of the target reaches its halfway point) at MLLT3 is 0.8 nM; on MLLT1 (NIH/3T3 cells, 5 h), 1.2 nM. For the same compound, the Dmax is 92% on MLLT3 (NIH3T3, maximum % degradation observed) and 96% at MLLT1 (NIH3T3, read-out: MLLT1 Dmax in NIH/3T3 cells).
